Assay results published in US11117932B2, “Peptides for specific inhibition of Jag 1-Notch 1 pathway” (The Hong Kong Polytechnic University, priority 2018, dated 2021).
Where two headings read alike, the source gives them in different places. Residues, ends and D or L forms follow the SMILES beside them. No end group written: not given here.

Experiments:
[1] = test system: S1-M1-80 cells; assay: cells; format: cell-based, human
Protocol: (§1) HCT-116, HCT-15, S1-M1-80, S1, L929, HEK293T-Jagged-1 were seeded in each well of a 96-well plate with a series of concentrations (a serial dilution from 1000μM to 0.5 μM) of peptides or drugs including DAPT, Topotecan at 37° C. with 5% CO2 in a humidified incubator for 3 days. Percentage of survival was determined by MTS assay as described.

[2] = test system: HEK-293T-Jagged-1 cells; format: cell-based, human
Protocol: as §1

[3] = in vitro; format: cell-based; settings: mouse
Protocol: as §1

[4] = test system: S1; assay: cells; format: cell-based, human
Protocol: as §1

[5] = test system: Jag1-Notch1 signalling; assay: Co-culture Notch luciferase reporter assay, Jag1-induced; format: cell-based, human; settings: peptides 25 μM
Protocol: Jag1-Notch interaction is measured using a co-culture assay with one cell line expressing the Notch ligand Jagged1 (Jag1) and a second expressing Notch (either Notch1 or Notch2). A firefly luciferase reporter plasmid with 12 upstream CBF-1 binding site was transfected into signalling-receiving cells to report on Notch signalling (FIG. 1D). Peptides were tested for their activity in inhibiting Jag1-induced Notch signalling. Complete inhibition is equivalent to the background signal seen without induction (−Jag1). […] N1 (SEQ ID NO: 10) is a 15-mer derived from the EGF-like repeat 12 of Notch1 (C467-G481). This is consistent with the structural information that EGF-like repeat 12 of Notch1 is near the MNNL domain of Jag1 (FIGS. 1B and C).
Specificity of N1 (SEQ ID NO: 10) peptide in inhibiting different Notch ligand-induced Notch signaling was investigated using in vitro co-culture assay. HEK293T or CHO cells expressing Notch ligand (either Jag1, DLL1 or DLL4) are co-cultured with Notch1- or Notch2-expressing cells. Notch1 and Notch2 signalling can be measured by either luciferase reporter assay or by the formation of NICD1 and NICD2. […] Half inhibition is reached at between 50 to 100 μM. […] This contrasts with DAPT which affects all the above interactions.
HEK-293T-Jagged-1 cells were seeded in 24-well plates in triplicate per sample group, and human HCT-116 cells were seeded in one 60 mm dish. Cells were allowed to settle, and were transfected the following day after the medium was changed to be antibiotic free. HCT-116 cells were transfected with 12×CSL-Luc and Renilla-Luc, using Lipofectamine® 3000 (Invitrogen™), according to the manufacturer's instructions. After 24 hours, HCT-116 cells were scraped and 2.5×10^4 cells in 1 mL complete medium per well were added to both 24-well plates. Peptides were treated to cells with the desired concentrations. N—[N-(3,5-difluorophenacetyl)-L-alanyl]-S-phenylglycine t-butyl ester (DAPT) was used as positive control. Cells were co-cultured for 12 hours before measure the luciferase activity. After incubation, cells were lysed with luciferase lysis buffer. Notch activity in cells expressing the 12×CSL-Luc reporter construct was measured by a luciferase assay using Dual-Luciferase® Reporter Assay System (Promega).

[6] = test system: S1-M1-80 cells; assay: Clonogenicity assay, S1-M1-80; format: cell-based, human; settings: S1-M1-80, single agent 1 μM
Protocol: The procedure for colony formation assay consists of following steps. An appropriate number of cells per well were seeded on a 6-well plate in duplicate. The number of cells for seeding should be related to the aggressiveness of the treatment. The cells were incubated for 12 hours in a CO2 incubator at 37° C. and allow cells to attach to the plate. The cells were treated with peptides or (DAPT) to required concentrations. The cells were incubated in a in a CO2 incubator at 37° C. for about 10 days until cells in control well have formed colonies which are of a substantially good size (the minimum score is 100 cells per colony). After the incubation, the medium was removed and cells were rinsed with 5 ml 1×PBS (phosphate buffered saline. pH 7.2). The cells were then fixed with 1 ml methanol at room temperature for 10 min. After fixation, the cells were stained with 0.5% crystal violet solution and incubated at room temperature for 1 h. After staining, the plates were immersed in deionized water to rinse off crystal violet and air-dried at room temperature for overnight. The dry plates were pictured with scanner. The number of colonies in each well was counted by cell counter software.

Compound	IC50 [1] [µM]	IC50 [4] [µM]	further results
CC[C@H](C)[C@H](N)C(=O)N[C@@H](CS)C(=O)N[C@@H](CC(C)C)C(=O)N[C@@H](CC(=O)O)C(=O)N[C@@H](CCC(N)=O)C(=O)N[C@H](C(=O)NCC(=O)N[C@@H](CCC(=O)O)C(=O)N[C@@H](Cc1ccccc1)C(=O)N[C@@H](CCC(N)=O)C(=O)N[C@@H](CS)C(=O)N[C@H](C(=O)N[C@@H](CS)C(=O)N[C@@H](CCC(=O)O)C(=O)O)[C@@H](C)CC)[C@@H](C)CC [N102T466I-M479E, ICLDQIGEFQCICE] (H-ICLDQIGEFQCICE-OH; N-terminus and C-terminus assumed)	15.2 ± 4.2	–	IC50 [2]: > 100 µM; IC50 at 3 days [3]: > 100 µM
CC[C@H](C)[C@H](NC(=O)[C@H](CCC(N)=O)NC(=O)[C@H](CC(=O)O)NC(=O)[C@H](CC(C)C)NC(=O)[C@H](CS)NC(=O)[C@@H](N)Cc1c[nH]c2ccccc12)C(=O)NCC(=O)N[C@@H](CCC(=O)O)C(=O)N[C@@H](Cc1ccccc1)C(=O)N[C@@H](CCC(N)=O)C(=O)N[C@@H](CS)C(=O)N[C@H](C(=O)N[C@@H](CS)C(=O)N[C@@H](CCC(=O)O)C(=O)O)[C@@H](C)CC [N102T466W-M479E, WCLDQIGEFQCICE] (H-WCLDQIGEFQCICE-OH; N-terminus and C-terminus assumed)	54.3 ± 5.2	–	IC50 [2]: > 100 µM; IC50 at 3 days [3]: > 100 µM
CLDQIGE [Peptide N108, CLDQIGE]	> 100	> 100	–
CC[C@H](C)[C@H](NC(=O)[C@H](CCC(N)=O)NC(=O)[C@H](CC(=O)O)NC(=O)[C@H](CC(C)C)NC(=O)[C@@H](N)CS)C(=O)NCC(=O)N[C@@H](CCC(=O)O)C(=O)N[C@@H](Cc1ccccc1)C(=O)N[C@@H](CCC(N)=O)C(=O)N[C@@H](CS)C(=O)N[C@H](C(=O)N[C@@H](CS)C(=O)O)[C@@H](C)CC [Peptide N103, CLDQIGEFQCIC] (H-CLDQIGEFQCIC-OH; N-terminus and C-terminus assumed)	> 50	> 100	–
CLDQIG [Peptide N109, CLDQIG]	> 100	> 100	–
CC[C@H](C)[C@H](NC(=O)[C@H](CCC(N)=O)NC(=O)[C@H](CC(=O)O)NC(=O)[C@H](CC(C)C)NC(=O)[C@H](CS)NC(=O)[C@@H](N)Cc1ccccc1)C(=O)NCC(=O)N[C@@H](CCC(=O)O)C(=O)N[C@@H](Cc1ccccc1)C(=O)N[C@@H](CCC(N)=O)C(=O)N[C@@H](CS)C(=O)N[C@H](C(=O)N[C@@H](CS)C(=O)N[C@@H](CCC(=O)O)C(=O)O)[C@@H](C)CC [N102T466F-M479E, FCLDQIGEFQCICE] (H-FCLDQIGEFQCICE-OH; N-terminus and C-terminus assumed)	43.9 ± 3.4	–	IC50 [2]: > 100 µM; IC50 at 3 days [3]: > 100 µM
CC[C@H](C)[C@H](N)C(=O)NCC(=O)N[C@@H](CCC(=O)O)C(=O)N[C@@H](Cc1ccccc1)C(=O)N[C@@H](CCC(N)=O)C(=O)N[C@@H](CS)C(=O)N[C@H](C(=O)N[C@@H](CS)C(=O)N[C@@H](CCSC)C(=O)N1CCC[C@H]1C(=O)NCC(=O)O)[C@@H](C)CC [Peptide N112, IGEFQCICMPG] (H-IGEFQCICMPG-OH; N-terminus and C-terminus assumed)	> 100	> 100	–
CC[C@H](C)[C@H](NC(=O)[C@H](CCC(N)=O)NC(=O)[C@H](CC(=O)O)NC(=O)[C@H](CC(C)C)NC(=O)[C@H](CS)NC(=O)[C@@H](N)Cc1ccc(O)cc1)C(=O)NCC(=O)N[C@@H](CCC(=O)O)C(=O)N[C@@H](Cc1ccccc1)C(=O)N[C@@H](CCC(N)=O)C(=O)N[C@@H](CS)C(=O)N[C@H](C(=O)N[C@@H](CS)C(=O)N[C@@H](CCC(=O)O)C(=O)O)[C@@H](C)CC [N102T466Y-M479E, YCLDQIGEFQCICE] (H-YCLDQIGEFQCICE-OH; N-terminus and C-terminus assumed)	14.9 ± 4.8	–	IC50 [2]: > 100 µM; IC50 at 3 days [3]: > 100 µM
CC[C@H](C)[C@H](NC(=O)[C@H](CS)NC(=O)[C@H](CCC(N)=O)NC(=O)[C@H](Cc1ccccc1)NC(=O)[C@H](CCC(=O)O)NC(=O)CNC(=O)[C@H](Cc1c[nH]c2ccccc12)NC(=O)[C@H](CCC(N)=O)NC(=O)[C@H](CC(=O)O)NC(=O)[C@H](CC(C)C)NC(=O)[C@@H](N)CS)C(=O)N[C@@H](CS)C(=O)N[C@@H](CCSC)C(=O)O [Peptide N102I471W, CLDQWGEFQCICM] (H-CLDQWGEFQCICM-OH; N-terminus and C-terminus assumed)	> 50	> 100	inhibition of Jag1-induced Notch signaling compared with N1 [5]: slight improvement
CC[C@H](C)[C@H](NC(=O)[C@H](CS)NC(=O)[C@H](CCC(N)=O)NC(=O)[C@H](Cc1ccccc1)NC(=O)[C@H](CCC(=O)O)NC(=O)CNC(=O)[C@@H](NC(=O)[C@H](CCC(N)=O)NC(=O)[C@H](CC(=O)O)NC(=O)[C@H](CC(C)C)NC(=O)[C@@H](N)CS)[C@@H](C)CC)C(=O)O [Peptide N104, CLDQIGEFQCI] (H-CLDQIGEFQCI-OH; N-terminus and C-terminus assumed)	28.4 ± 0.6	> 50	inhibition of Jag1-induced Notch signaling compared with N1 [5]: stronger inhibitory effect than N1
CC[C@H](C)[C@H](NC(=O)[C@H](CCC(N)=O)NC(=O)[C@H](CC(=O)O)NC(=O)[C@H](CC(C)C)NC(=O)[C@@H](N)CS)C(=O)NCC(=O)N[C@@H](CCC(=O)O)C(=O)N[C@@H](Cc1ccccc1)C(=O)N[C@@H](CCC(N)=O)C(=O)N[C@@H](CS)C(=O)N[C@H](C(=O)N[C@@H](CS)C(=O)N[C@@H](CCSC)C(=O)O)[C@@H](C)CC [Peptide N102, CLDQIGEFQCICM] (H-CLDQIGEFQCICM-OH; N-terminus and C-terminus assumed)	10.2 ± 0.4	> 50	inhibition of Jag1-induced Notch signaling compared with N1 [5]: stronger inhibitory effect than N1
CLDQIGEF [Peptide N107, CLDQIGEF]	> 100	> 100	–
CC[C@H](C)[C@H](NC(=O)[C@H](CCC(N)=O)NC(=O)[C@H](CC(=O)O)NC(=O)[C@H](CC(C)C)NC(=O)[C@@H](N)CS)C(=O)NCC(=O)N[C@@H](CCC(=O)O)C(=O)N[C@@H](Cc1ccccc1)C(=O)N[C@@H](CCC(N)=O)C(=O)N[C@@H](CS)C(=O)N[C@H](C(=O)N[C@@H](CS)C(=O)N[C@@H](CCSC)C(=O)N1CCC[C@H]1C(=O)O)[C@@H](C)CC [Peptide N101, CLDQIGEFQCICMP] (H-CLDQIGEFQCICMP-OH; N-terminus and C-terminus assumed)	14.1 ± 0.7	> 50	–
CC[C@@]1(O)C(=O)OCc2c1cc1n(c2=O)Cc2cc3c(CN(C)C)c(O)ccc3nc2-1 [Topotecan, reference compound]	–	–	IC50 ([1]; Homo sapiens, 72 h, S1-M1-80 cells, 3 days, MTS, read-out: IC50 (μM) s1-m1-80): 14.9 ± 0.1 µM; IC50 ([4]; Homo sapiens, 72 h, S1 cells, 3 days, MTS, read-out: IC50 (μM) S1): 0.19 ± 0.05 µM; colony formation [6]: 1263 colonies/well
CC[C@H](C)[C@H](NC(=O)[C@H](CCC(N)=O)NC(=O)[C@H](CC(=O)O)NC(=O)[C@H](CC(C)C)NC(=O)[C@@H](N)CS)C(=O)NCC(=O)N[C@@H](CCC(=O)O)C(=O)N[C@@H](Cc1ccccc1)C(=O)N[C@@H](CCC(N)=O)C(=O)N[C@@H](CS)C(=O)O [Peptide N105, CLDQIGEFQC] (H-CLDQIGEFQC-OH; N-terminus and C-terminus assumed)	> 100	> 100	–
CC(C)C[C@H](NC(=O)[C@@H](N)CS)C(=O)N[C@@H](CC(=O)O)C(=O)N[C@@H](CCC(N)=O)C(=O)O [Peptide N111, CLDQ] (H-CLDQ-OH; N-terminus and C-terminus assumed)	> 100	> 100	–
CLDQIGEFQ [Peptide N106, CLDQIGEFQ]	> 100	> 100	–
